Patent publication US11660298B1, “Preventing thermal trauma by pre-treatment with Icilin” (priority 2019, dated 2023)

Key:
[1] = test system: Human Foreskin Fibroblasts (HFF); experiment: Fibroblast viability in the in vitro burn model (MTS / trypan blue exclusion); format: cell-based; conditions: thermally challenged fibroblasts (50° C., 7.5 minutes), Icilin pre-treatment 0.0002-0.02 nM in DMSO, vs untreated burned fibroblasts, about 24 hours after burning
Experimental: Human Foreskin Fibroblasts (HFF) (ATCC, Manassas, Va.) were cultured in Dulbecco's Modified Eagle Medium Nutrient Mixture F-12 with 10% Fetal Bovine Serum, 1% penicillin streptomycin. 0.05% Trypsin EDTA was used for subculture (Invitrogen, Grand Isl., N.Y.). Cells were incubated at 370 Celsius and 5% CO2, and grown in 96 well, T25 or T75 Corning Tissue Culture vessels. When cells became confluent, they were trypsinized using 0.05% trypsin/EDTA. Cells used for the various assays were plated at 0.2×10^6 cells/mL unless otherwise noted. Fibroblasts were selected due to their critical role in skin wound recovery. Fibroblasts were fluorescently imaged with a Nikon Eclipse TS100 Microscope (Nikon, Melville, N.Y.). An in vitro burn model was created to replicate the severity of a third-degree burn. Cells were plated in a Polystyrene 96 Well Plate (100 μL per well) then burned in a VWR Incubating Micro Plate Shaker (VWR, Bridgeport, N.J.) via its adjustable heat setting. Thermal trauma (burning) was determined to take place at 50° C. for a total of 7.5 minutes (FIG. 1b). This temperature represented cell viability >50% 24 hours after the thermal injury treatment. […] Proliferation was determined using the MTS assay. […] The 96-well plate was read to measure absorbance at 490 nm using a microplate reader (BioTek, Winooski, Vt.). Viability was determined by trypan blue exclusion assays. […]

[2] = test system: Interleukin-6 (IL-6); experiment: Indirect ELISA of IL-6 expression in fibroblasts; format: cell-based, Human
Experimental: (§1) Human Foreskin Fibroblasts (HFF) (ATCC, Manassas, Va.) were cultured in Dulbecco's Modified Eagle Medium Nutrient Mixture F-12 with 10% Fetal Bovine Serum, 1% penicillin streptomycin. 0.05% Trypsin EDTA was used for subculture (Invitrogen, Grand Isl., N.Y.). Cells were incubated at 370 Celsius and 5% CO2, and grown in 96 well, T25 or T75 Corning Tissue Culture vessels. When cells became confluent, they were trypsinized using 0.05% trypsin/EDTA. Cells used for the various assays were plated at 0.2×10^6 cells/mL unless otherwise noted. Fibroblasts were selected due to their critical role in skin wound recovery. Fibroblasts were fluorescently imaged with a Nikon Eclipse TS100 Microscope (Nikon, Melville, N.Y.). An in vitro burn model was created to replicate the severity of a third-degree burn. Cells were plated in a Polystyrene 96 Well Plate (100 μL per well) then burned in a VWR Incubating Micro Plate Shaker (VWR, Bridgeport, N.J.) via its adjustable heat setting. Thermal trauma (burning) was determined to take place at 50° C. for a total of 7.5 minutes (FIG. 1b). This temperature represented cell viability >50% 24 hours after the thermal injury treatment. Temperature of plate was confirmed using a Fluke 63 Infrared Thermometer (Fluke, Phoenix, Ariz.). […] The 96-well plate was read to measure absorbance at 405 nm in a microplate reader (BioTek, Winooski, Vt.).

[3] = test system: Interleukin-8 (IL-8); experiment: Indirect ELISA of IL-8 expression in fibroblasts; format: cell-based, Human; conditions: non-thermally challenged and thermally challenged fibroblasts, Icilin 0.0002-0.02 nM
Experimental: as §1

[4] = test system: Interleukin-1β (IL-1β); experiment: Indirect ELISA of IL-1β expression in fibroblasts; format: cell-based, Human
Experimental: as §1

[5] = test system: Tumor Necrosis Factor-α (TNF-α); experiment: Indirect ELISA of TNF-α expression in fibroblasts; format: cell-based, Human
Experimental: as §1

[6] = test system: Reactive Oxygen Species (ROS); experiment: ROS-Glo H2O2 assay of Reactive Oxygen Species in fibroblasts; format: cell-based, Human
Experimental: Human Foreskin Fibroblasts (HFF) (ATCC, Manassas, Va.) were cultured in Dulbecco's Modified Eagle Medium Nutrient Mixture F-12 with 10% Fetal Bovine Serum, 1% penicillin streptomycin. 0.05% Trypsin EDTA was used for subculture (Invitrogen, Grand Isl., N.Y.). Cells were incubated at 370 Celsius and 5% CO2, and grown in 96 well, T25 or T75 Corning Tissue Culture vessels. When cells became confluent, they were trypsinized using 0.05% trypsin/EDTA. Cells used for the various assays were plated at 0.2×10^6 cells/mL unless otherwise noted. Fibroblasts were selected due to their critical role in skin wound recovery. Fibroblasts were fluorescently imaged with a Nikon Eclipse TS100 Microscope (Nikon, Melville, N.Y.). An in vitro burn model was created to replicate the severity of a third-degree burn. Cells were plated in a Polystyrene 96 Well Plate (100 μL per well) then burned in a VWR Incubating Micro Plate Shaker (VWR, Bridgeport, N.J.) via its adjustable heat setting. Thermal trauma (burning) was determined to take place at 50° C. for a total of 7.5 minutes (FIG. 1b). This temperature represented cell viability >50% 24 hours after the thermal injury treatment. […] ROS was measured through ROS-GIo™ H2O2 Assay (Promega, Madison, Wis.). […] The well plate was then incubated at room temperature for 20 minutes then measured for luminescence (see FIG. 7).

[7] = test system: Transient receptor potential cation channel subfamily M member 8 (TRPM8); experiment: TRPM8 expression levels in fibroblasts; format: cell-based, Human
Experimental: Human Foreskin Fibroblasts (HFF) (ATCC, Manassas, Va.) were cultured in Dulbecco's Modified Eagle Medium Nutrient Mixture F-12 with 10% Fetal Bovine Serum, 1% penicillin streptomycin. 0.05% Trypsin EDTA was used for subculture (Invitrogen, Grand Isl., N.Y.). Cells were incubated at 370 Celsius and 5% CO2, and grown in 96 well, T25 or T75 Corning Tissue Culture vessels. When cells became confluent, they were trypsinized using 0.05% trypsin/EDTA. Cells used for the various assays were plated at 0.2×10^6 cells/mL unless otherwise noted. Fibroblasts were selected due to their critical role in skin wound recovery. Fibroblasts were fluorescently imaged with a Nikon Eclipse TS100 Microscope (Nikon, Melville, N.Y.). An in vitro burn model was created to replicate the severity of a third-degree burn. Cells were plated in a Polystyrene 96 Well Plate (100 μL per well) then burned in a VWR Incubating Micro Plate Shaker (VWR, Bridgeport, N.J.) via its adjustable heat setting. Thermal trauma (burning) was determined to take place at 50° C. for a total of 7.5 minutes (FIG. 1b). This temperature represented cell viability >50% 24 hours after the thermal injury treatment. Temperature of plate was confirmed using a Fluke 63 Infrared Thermometer (Fluke, Phoenix, Ariz.). […]

[8] = biological target: TRPM8 (Homo sapiens, UniProt Q7Z2W7); conditions: super-cooling chemical; comparison with menthol; cited from earlier work
Chain of TRPM8 (Q7Z2W7 whole entry, species assumed): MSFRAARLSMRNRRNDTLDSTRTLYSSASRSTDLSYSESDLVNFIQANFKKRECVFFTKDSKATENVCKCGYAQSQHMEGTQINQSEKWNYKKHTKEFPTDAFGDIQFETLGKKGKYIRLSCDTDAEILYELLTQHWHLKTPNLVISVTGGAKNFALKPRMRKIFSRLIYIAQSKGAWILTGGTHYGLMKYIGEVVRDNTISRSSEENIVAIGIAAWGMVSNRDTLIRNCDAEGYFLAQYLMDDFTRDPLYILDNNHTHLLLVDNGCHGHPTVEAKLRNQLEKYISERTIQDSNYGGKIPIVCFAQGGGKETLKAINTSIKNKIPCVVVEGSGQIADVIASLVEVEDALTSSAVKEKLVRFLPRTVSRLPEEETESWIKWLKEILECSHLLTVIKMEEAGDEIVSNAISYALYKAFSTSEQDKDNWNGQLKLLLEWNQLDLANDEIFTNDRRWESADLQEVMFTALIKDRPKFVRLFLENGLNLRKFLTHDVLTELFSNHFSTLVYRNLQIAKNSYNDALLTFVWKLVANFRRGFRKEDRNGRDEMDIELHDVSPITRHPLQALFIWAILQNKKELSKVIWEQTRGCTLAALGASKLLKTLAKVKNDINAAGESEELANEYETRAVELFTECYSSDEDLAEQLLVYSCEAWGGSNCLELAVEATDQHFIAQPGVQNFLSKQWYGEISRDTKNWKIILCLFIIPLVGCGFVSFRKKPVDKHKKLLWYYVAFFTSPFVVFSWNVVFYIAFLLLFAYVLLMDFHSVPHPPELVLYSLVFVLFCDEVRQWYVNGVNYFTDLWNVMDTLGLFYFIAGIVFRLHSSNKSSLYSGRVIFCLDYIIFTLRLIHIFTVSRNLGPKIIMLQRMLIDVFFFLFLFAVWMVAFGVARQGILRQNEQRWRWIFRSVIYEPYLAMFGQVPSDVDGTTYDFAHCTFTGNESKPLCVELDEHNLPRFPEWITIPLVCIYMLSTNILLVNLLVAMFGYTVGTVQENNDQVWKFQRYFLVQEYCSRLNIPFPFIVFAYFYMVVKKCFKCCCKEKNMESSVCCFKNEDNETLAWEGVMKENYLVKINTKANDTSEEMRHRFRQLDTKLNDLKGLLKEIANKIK

[9] = non-thermally challenged fibroblasts, all Icilin concentrations

TRPM8 expression [7, 9]: significantly increased
SMILES: O=C1NC(c2cccc([N+](=O)[O-])c2)=CCN1c1ccccc1O [Icilin]
fibroblast viability [1]: significantly higher than the untreated burned fibroblasts | IL-6 expression ([2]; non-thermally challenged fibroblasts, Icilin 0.0002-0.02 nM): increased IL-6 expression | IL-6 expression ([2]; thermally challenged fibroblasts, Icilin pre-treatment 0.0002-0.02 nM): significant decrease in IL-6 expression | IL-8 expression [3]: no noteworthy effect on IL-8 expression | IL-1β expression ([4]; non-thermally challenged fibroblasts, increasing concentrations of Icilin): IL-1β expression also increases | IL-1β levels compared with non-thermally challenged fibroblasts at the same Icilin concentration ([4]; thermally challenged fibroblasts, Icilin pre-treatment, all concentrations): below the levels of the non-thermally challenged fibroblasts | TNF-α expression ([5]; fibroblasts without thermal treatment, increasing Icilin concentrations): steady increase in TNF-α expression | TNF-α expression ([5]; thermally challenged fibroblasts, Icilin pre-treatment, increasing concentrations): dropped significantly | ROS levels [6, 9]: significantly reduces ROS levels | ROS levels ([6]; thermally challenged fibroblasts, Icilin pre-treatment at 0.02 nM): essentially restore ROS levels of thermally challenged fibroblasts to their normal quantities | TRPM8 expression ([7]; thermally challenged fibroblasts, Icilin pre-treatment): increase in TRPM8 expression was maintained | potency relative to menthol [8]: 200 times
